From patent US12421220B2, “Bicyclic-substituted glutarimide cereblon binders” (C4 THERAPEUTICS, INC., priority 2022, dated 2025) come the findings set out here.

Where two headings read alike, the source gives them in different places.

One test deals with T1, BRD4 (Homo sapiens, UniProt O60885).
T1 construct: endogenously expressing BRD4 with HiBiT fusion tag via CRISPR; endogenous in cells; host or cells: 293T.92 (BRD4-HiBiT) cells, a CRISPR knock-in made from 293T
The test can be described thus: BRD4 HiBiT degradation assay in 293T.92 (BRD4-HiBiT) cells. Format: cell-based. To be noted: 293T.92 cells, 24.0 hours. An excerpt:
Example 3: BRD4 HiBiT Method
Dulbecco's modified Eagle medium (DMEM) without phenol red and fetal bovine serum (FBS) were purchased from Gibco (Grand Island, NY, USA). Nano-Glo® HiBiT Lytic Assay System was purchased from Promega (Madison, WI, USA). 293T.92 (BRD4-HiBiT) cell line, endogenously expressing BRD4 with HiBiT fusion tag via CRISPR was made internally from the 293T human cell line acquired from American Type Culture Collection (Rockville, MD, USA). Cell culture flasks and 384-well microplates were acquired from VWR (Radnor, PA, USA) or Corning (Corning, NY, USA).
BRD4 degradation was determined based on quantification of luminescent signal using Nano-Glo® HiBiT Lytic Assay kit. Test compounds were added to the 384-well plate from a top concentration of […] with 11 points, half log titration in duplicates. 293T.92 cells were added into 384-well plates at a cell density of 15000 cells per well. The plates were kept at 37° C. with 5% CO2 for […]. The cells treated in the absence of the test compound were the negative control and the cells without Nano-Glo® HiBiT Lytic reagent were the positive control. After 24-hour incubation, Nano-Glo® HiBiT Lytic Assay reagents were added to the cells. Luminescence was acquired on EnVision™ Multilabel Reader (PerkinElmer, Santa Clara, CA, USA).
In general terms: HiBiT is a short tag that completes a luciferase, so light tracks the accessible tagged protein.

For test [1], the target named is T2, CRBN-DDB1 (CRBN_DDB1.3) (Homo sapiens, UniProt Q96SW2). The test is described as follows: Fluorescence polarization (FP) binding assay, CRBN_DDB1.3 construct. To be noted: 0.05% PA (no BSA); benzomorpholine binders; read-out: FP CRBN_DDB1.3 0.05% PA Ka. On the technique in general: Fluorescence polarisation rises when a labelled molecule tumbles more slowly, as on binding a larger partner.
T2 sequence (Q96SW2 318-426 limits assumed): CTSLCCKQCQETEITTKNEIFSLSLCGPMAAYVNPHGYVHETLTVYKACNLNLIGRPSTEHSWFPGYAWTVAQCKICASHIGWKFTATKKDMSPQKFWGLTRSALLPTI

The target of test [2] is T2, CRBN-DDB1 (CRBN_DDB1.3). The description is as above. To be noted: for Kd: 0.05% PA, 0.1% BSA, indoline binders, read-out: FP CRBN_DDB1.3 0.05% PA, 0.1% BSA ka nM. Here is the method: (§1) Example 2: Fluorescence Polarization (FP) Assay for Screening Compound Ligand Binders of CRBN-DDB1
(§2) Measuring compound ligand binding to CRBN-DDB 1 was carried out using an established sensitive and quantitative in vitro fluorescence polarization (FP) based binding assay. (See, I. J. Enyedy et al, J. Med. Chem., 44: […] [2001]). Compounds were dispensed from serially diluted DMSO stock into black 384-well compatible fluorescence polarization plates using an Echo acoustic dispenser. Compound binding to CRBN-DDB 1 was measured by displacement of an established CRBN binding ligand conjugated to an Alexa Fluor® dye (probe). A […] mixture containing 10nM CRBN-DDB1 and 5 nM probe in 50 mM Hepes, pH 7.4, 200 mM NaCl, 1% DMSO, 0.1% BSA and 0.05% o pluronic acid-127 acid was added to wells containing compound and incubated at room temperature for 60 min. Matching control wells excluding CRBN-DDB 1 were used to correct for background fluorescence. Plates were read on an Envision plate reader with appropriate FP filter sets. The corrected S (perpendicular) and P (parallel) values were used to calculate fluorescence polarization (FP) with the following equation: FP=1000*(S−G*P)/(S+G*P).
(§3) The fractional amount of bound probe (FB) to CRBN-DDB 1 as a function of compound concentration was fitted according to Wang; FEBS Letters 360, (1995), 111-114 to obtain fits for parameter offsets and binding constant (KA) of competitor compound.

Another test addresses CRBN-DDB1 (CRBN_DDB1.7) (Homo sapiens, UniProt Q96SW2). The test can be described thus: Fluorescence polarization (FP) binding assay, CRBN_DDB1.7 construct. Conditions: 0.05% PA, 0.1% BSA; indoline binders; read-out: FP CRBN_DDB1.7 0.05% PA, 0.1% BSA ka nM. Here is the method:
as §1, §2, §3

Chain of CRBN-DDB1 (CRBN_DDB1.7) (Q96SW2 81-442 limits assumed): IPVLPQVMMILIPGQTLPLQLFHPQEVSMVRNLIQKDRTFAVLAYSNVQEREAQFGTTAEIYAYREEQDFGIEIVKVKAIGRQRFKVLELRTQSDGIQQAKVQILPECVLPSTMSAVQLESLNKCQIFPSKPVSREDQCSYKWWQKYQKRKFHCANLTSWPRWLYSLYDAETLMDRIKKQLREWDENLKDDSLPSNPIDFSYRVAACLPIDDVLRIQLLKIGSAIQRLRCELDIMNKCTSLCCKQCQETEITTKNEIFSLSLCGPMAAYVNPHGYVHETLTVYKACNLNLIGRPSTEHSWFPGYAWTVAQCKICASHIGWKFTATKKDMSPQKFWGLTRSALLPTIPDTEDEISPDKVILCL

Usually DC50 stands for the concentration giving 50% degradation. The low end stands for degradation at low concentration, the high end for degradation only at high concentration. One may read the Emax as the size of the effect at its maximum, as opposed to the concentration needed. At BRD4, `COC(=O)N1c2ccc3c(nc(Cc4ccccc4)n3[C@H]3CCC[C@H](C(=O)N4CCC(c5ccc6c(c5)OCCN6C5CCC(=O)NC5=O)CC4)C3)c2CC[C@@H]1C` (stereo partly drawn) [Compound 32-14, methyl (7S)-2-benzyl-7-methyl-3-[(1S,3S)-3-[4-[4-(2,6-dioxo-3-piperidyl)-2,3-dihydro-1,4-benzoxazin-7-yl]piperidine-i-carbonyl]cyclohexyl]-8,9-dihydro-7H-imidazo[4,5-f]quinoline-6-carboxylate] showed a half-maximal degradation concentration (DC50) below 1 µM and a maximum response (Emax) below 30%.
As to `O=C1CCC(N2CCOc3c(C4CCNCC4)cccc32)C(=O)N1` (stereo not shown) [Compound 9-11, 3-[8-(4-piperidyl)-2,3-dihydro-1,4-benzoxazin-4-yl]piperidine-2,6-dione], the Kd at CRBN-DDB1 (CRBN_DDB1.3) [1] is at most 100 µM.
Turning to `CC(C)(C)OC(=O)N1CCC(c2cccc3c2OCCN3C2CCC(=O)NC2=O)CC1` (stereo not shown) [Compound 9-6, tert-butyl 4-[4-(2,6-dioxo-3-piperidyl)-2,3-dihydro-1,4-benzoxazin-8-yl]piperidine-1-carboxylate], the “FP CRBN_DDB1.3 0.05% PA, 0.1% BSA Ka nM” value at CRBN-DDB1 (CRBN_DDB1.3) [2] (benzomorpholine binders) was “** (≤100 μM is **)”. In addition, on CRBN-DDB1 (CRBN_DDB1.3) [1], the Kd is at most 100 µM.
As to `O=C1CC[C@H](N2CCc3c(N4CCC(CCO)CC4)cccc32)C(=O)N1` (single isomer, unassigned) [Compound 42-5], the Kd at CRBN-DDB1 (CRBN_DDB1.3) [2] and at CRBN-DDB1 (CRBN_DDB1.7) was below 100000 nM in each case.
`CC(C)(C)OC(=O)N1CCC(c2c(F)ccc3c2CCN3[C@H]2CCC(=O)NC2=O)CC1` (single isomer, unassigned) [Compound 49-6]: the Kd on CRBN-DDB1 (CRBN_DDB1.3) [2] and on CRBN-DDB1 (CRBN_DDB1.7) was below 100000 nM each time.
In the case of `O=C1CC[C@@H](N2CCc3c(N4CCC5(CC4)OCCO5)cccc32)C(=O)N1` (single isomer, unassigned) [Compound 45-4], the Kd is below 100000 nM at CRBN-DDB1 (CRBN_DDB1.3) [2] and below 1000 nM at CRBN-DDB1 (CRBN_DDB1.7).
For `CC(C)(C)OC(=O)N1CCC(c2c(F)ccc3c2CCN3[C@@H]2CCC(=O)NC2=O)CC1` (single isomer, unassigned) [Compound 49-7] the same measures were below 100000 nM and below 100000 nM.
